Source: patent publication EP0784620B1, “N-SUBSTITUTED PIPERIDINYL BICYCLIC BENZOATE DERIVATIVES” (JANSSEN PHARMACEUTICA N.V., priority 1994, dated 1996)
Structures can show the parent of a compound that is named as a salt.

Test system: ileum segments
Assay: Guinea Pig Ileum Coaxial Stimulation
Assay type: tissue-based
Settings: Cavia porcellus, 5 min; concentration of 3.10^-9 M; five minutes after administration versus before; submaximal electrical stimulation (80% of maximal response); read-out: increase of the amplitude of the twitch response
Experimental: Example 10 : Guinea Pig Ileum Coaxial Stimulation. Dunkin Hartley guinea-pigs of both sexes (body weight ± 500 g) were killed by decapitation. The ileum was removed and cleansed with warmed and oxygenated Krebs-Henseleit solution. Non-terminal, intact ileum segments, 4.5 cm long, of the guinea pig were vertically suspended with a preload of 1 g in 100 ml Krebs-Henseleit solution (37.5°C), gassed with a mixture of 95% O2 and 5% CO2. Transmural excitation was applied over the whole length of the ileum segment by means of two platinum electrodes, the anode threaded through the lumen of the ileum, the cathode in the bathing solution. The preparation was excited with single rectangular […] [1 msec; 0.1 Hz; submaximal response (current leading to 80% of maximal reponse)] from a progammable stimulator. Contractions were measured isometrically. During the stabilization period of 30 min, the strips were repeatedly stretched to a tension of 2g, in order to obtain a steady state tension of lg. Before starting the electrical stimulation, a cumulative dose response curve of acetylcholine was given. The electrical stimulation was started at supramaximal current to determine the maximal amplitude of the twitch responses. When these responses were stable, a submaximal stimulation to obtain 80% of the maximal responses was given until the twitch responses were constant for at least 15 min, whereafter a single dose of the test compound was added to the bath fluid. The amplitude of the twitch response five minutes after the administration of the test compound is compared with the amplitude before the administration of the test compound.

Structure (SMILES) | activation at 0.003 µM [%]
CC1(C)CCc2c(N)c(Cl)cc(C(=O)OC3CCN(CC4CCCO4)CC3)c2O1 (racemic) [Compound 32, 1-[(tetrahydro-2-furanyl)methyl]-4-piperidinyl 5-amino-6-chloro-3,4-dihydro-2,2-dimethyl-2H-1-benzopyran-8-carboxylate] | > 5
Nc1c(Cl)cc(C(=O)OC2CCN(CCCC3CCCO3)CC2)c2c1CCO2 (racemic) [Compound 35] | > 5
Nc1c(Cl)cc(C(=O)OC2CCN(CCC3CCCO3)CC2)c2c1CCO2 (racemic) [Compound 36, 1-[2-(tetrahydro-2-furanyl)ethyl]-4-piperidinyl 4-amino-5-chloro-2,3-dihydro-7-benzofurancarboxylate] | > 5
CCn1c(=O)n(CCN2CCC(OC(=O)c3cc(Cl)c(N)c4c3OCC4)CC2)c2ccccc21 [Compound 1] | > 5
CC(C)OCCCN1CCC(OC(=O)c2cc(Cl)c(N)c3c2OCC3)CC1 [Compound 4, 1-[3-(1-methylethoxy)propyl]-4-piperidinyl 4-amino-5-chloro-2,3-dihydro-7-benzofurancarboxylate monohydrochloride] | > 5
CC1(CCCN2CCC(OC(=O)c3cc(Cl)c(N)c4c3OCC4)CC2)OCCO1 [Compound 6, 1-[3-(2-methyl-1,3-dioxolan-2-yl)propyl]-4-piperidinyl 4-amino-5-chloro-2,3-dihydro-7-benzofurancarboxylate] | > 5
Nc1c(Cl)cc(C(=O)OC2CCN(CCCn3nc(Cl)ccc3=O)CC2)c2c1CCO2 [Compound 7, 1-[3-(3-chloro-6-oxo-1(6H)-pyridazinyl)propyl]-4-piperidinyl 4-amino-5-chloro-2,3-dihydro-7-benzofurancarboxylate] | > 5
CC(=O)CCCN1CCC(OC(=O)c2cc(Cl)c(N)c3c2OCC3)CC1 [Compound 8, 1-(4-oxopentyl)-4-piperidinyl 4-amino-5-chloro-2,3-dihydro-7-benzofurancarboxylate] | > 5
Nc1c(Cl)cc(C(=O)OC2CCN(CCOCCO)CC2)c2c1CCO2 [Compound 14, 1-[2-(2-hydroxyethoxy)ethyl]-4-piperidinyl 4-amino-5-chloro-2,3-dihydro-7-benzo-furancarboxylate] | > 5
COCCCN1CCC(OC(=O)c2cc(Cl)c(N)c3c2OCC3)CC1 [Compound 15, 1-(3-methoxypropyl)-4-piperidinyl 4-amino-5-chloro-2,3-dihydro-7-benzofuran-carboxylate] | > 5
CCN1CCC(OC(=O)c2cc(Cl)c(N)c3c2OC(C)(C)C3)CC1 [Compound 16] | > 5
CCOC(=O)CCCN1CCC(OC(=O)c2cc(Cl)c(N)c3c2OCC3)CC1 [Compound 33, ethyl 4-[[(4-amino-5-chloro-2,3-dihydro-7-benzofuranyl)carbonyl]oxy]-1-piperidinebutanoate] | > 5
Nc1c(Cl)cc(C(=O)OC2CCN(CC3CC3)CC2)c2c1CCO2 [Compound 34] | > 5
Cc1nccnc1NCCN1CCC(OC(=O)c2cc(Cl)c(N)c3c2OCC3)CC1 [Compound 39, 1-[2-[(3-methyl-2-pyrazinyl)amino]ethyl]-4-piperidinyl 4-amino-5-chloro-2,3-dihydro-7-benzofurancarboxylate] | > 5
COC1CN(CCCC2(C)OCCO2)CCC1OC(=O)c1cc(Cl)c(N)c2c1OCC2 (stereo not shown) [Compound 46] | > 5
COC1CN(CCCn2nc(Cl)ccc2=O)CCC1OC(=O)c1cc(Cl)c(N)c2c1OCC2 (stereo not shown) [Compound 50] | > 5
